According to ChEMBL document CHEMBL1122370 (J Med Chem, 1983):
“And” between values parts separate entries of the source, which are not always exact repeats. Equal entries are not always repeated.

What was measured:
Mus musculus [1] = test: Average weight of the mouse after treating with 30 mg/kg dose for 1 day; format: functional
L1210 [2] = test: In vivo antitumor activity against L1210 leukemia in 9 mice measured as median survival range at 60 mg/kg; Value ranges from (18-21); format: functional, Mus musculus
L1210 [3] = test: In vivo anti tumor activity against L1210 leukemia in 9 mice measured as Increased life span at 60 mg/kg; format: functional; settings: Mus musculus
L1210 [4] = test: In vivo antitumor activity against L1210 leukemia in 5 mice measured as median survival range at 30 mg/kg; Value ranges from (10-14); format: functional, Mus musculus
Mus musculus [5] = test: Average weight change in mouse after treating with 30 mg/kg dose for 7 days.; format: functional
L1210 [6] = test: In vivo anti tumor activity against L1210 leukemia in 5 mice measured as Increased life span at 45 mg/kg; format: functional; settings: Mus musculus
Mus musculus [7] = test: Average weight of the mouse after treating with 60 mg/kg dose for 1 day; format: functional
Mus musculus [8] = test: Average weight change in mouse after treating with 60 mg/kg dose for 7 days.; format: functional
Mus musculus [9] = test: Average weight of the mouse after treating with 45 mg/kg dose for 1 day; format: functional
Mus musculus [10] = test: Average weight of the mouse after treating with 180 mg/kg dose for 1 day; format: functional
Mus musculus [11] = test: Average weight of the mouse after treating with 90 mg/kg dose for 1 day; format: functional
L1210 [12] = test: In vivo antitumor activity against L1210 leukemia in 5 mice measured as median survival range at 180 mg/kg; Value ranges from (14-23); format: functional, Mus musculus
L1210 [13] = test: In vivo anti tumor activity against L1210 leukemia in 5 mice measured as Increased life span at 90 mg/kg; format: functional; settings: Mus musculus
Mus musculus [14] = test: Average weight change in mouse after treating with 180 mg/kg dose for 7 days.; format: functional
L1210 [15] = test: In vivo antitumor activity against L1210 leukemia in 5 mice measured as median survival range at 90 mg/kg; Value ranges from (13-19); format: functional, Mus musculus
L1210 [16] = test: In vivo antitumor activity against L1210 leukemia in 5 mice measured as median survival range at 45 mg/kg; Value ranges from (11-13); format: functional, Mus musculus
Mus musculus [17] = test: Average weight change in mouse after treating with 90 mg/kg dose for 7 days.; format: functional
L1210 [18] = test: In vivo anti tumor activity against L1210 leukemia in 5 mice measured as Increased life span at 180 mg/kg; format: functional; settings: Mus musculus
L1210 [19] = test: In vivo antitumor activity against L1210 leukemia in 5 mice measured as median survival range at 400 mg/kg; Value ranges from (14-20).; format: functional, Mus musculus
Mus musculus [20] = test: Average weight of the mouse after treating with 400 mg/kg dose for 7 day.; format: functional
L1210 [21] = test: In vivo antitumor activity against L1210 leukemia in 5 mice measured as Increased life span at 400 mg/kg.; format: functional, Mus musculus
L1210 [22] = test: In vivo antitumor activity against L1210 leukemia in 15 mice measured as T/C values; T/C = 15/11; format: functional, Mus musculus
Mus musculus [23] = test: Average weight of the mouse after treating with 400 mg/kg dose for 1 day.; format: functional
L1210 [24] = test: In vivo antitumor activity against L1210 leukemia in 10 mice measured as Increased life span at 160 mg/kg.; format: functional; settings: Mus musculus
Mus musculus [25] = test: Average weight of the mouse after treating with 280 mg/kg dose for 1 day.; format: functional
L1210 [26] = test: In vivo antitumor activity against L1210 leukemia in 10 mice measured as median survival range at 160 mg/kg; Value ranges from(10-16).; format: functional, Mus musculus
L1210 [27] = test: In vivo antitumor activity against L1210 leukemia in 5 mice measured as Increased life span at 240 mg/kg.; format: functional; settings: Mus musculus
L1210 [28] = test: In vivo antitumor activity against L1210 leukemia in 5 mice measured as Increased life span at 280 mg/kg.; format: functional; settings: Mus musculus
Mus musculus [29] = test: Average weight of the mouse after treating with 120 mg/kg dose for 7 days.; format: functional
Mus musculus [30] = test: Average weight of the mouse after treating with 160 mg/kg dose for 1 day.; format: functional
Mus musculus [31] = test: Average weight of the mouse after treating with 160 mg/kg dose for 7 days.; format: functional
L1210 [32] = test: In vivo antitumor activity against L1210 leukemia in 13 mice measured as T/C values(days); T/C = 13/9; format: functional, Mus musculus
L1210 [33] = test: In vivo antitumor activity against L1210 leukemia in 5 mice measured as median survival range at 280 mg/kg; Value ranges from(14-20); format: functional, Mus musculus
Mus musculus [34] = test: In vivo antitumor activity against L1210 leukemia in 16 mice measured as T/C values(days); T/C = 16/9; format: functional
L1210 [35] = test: In vivo antitumor activity against L1210 leukemia in 17 mice measured as T/C values(days); T/C = 17/9; format: functional, Mus musculus
Mus musculus [36] = test: In vivo antitumor activity against L1210 leukemia in 5 mice measured as Increased life span at 200 mg/kg.; format: functional
L1210 [37] = test: In vivo antitumor activity against L1210 leukemia in 5 mice measured as median survival range at 240 mg/kg; Value ranges from(13-18); format: functional, Mus musculus
L1210 [38] = test: In vivo antitumor activity against L1210 leukemia in 10 mice measured as median survival range at 120 mg/kg; Value ranges from(9-15); format: functional, Mus musculus
Mus musculus [39] = test: Average weight of the mouse after treating with 240 mg/kg dose for 1 day.; format: functional
Mus musculus [40] = test: Average weight of the mouse after treating with 200 mg/kg dose for 1 day.; format: functional
Mus musculus [41] = test: Average weight of the mouse after treating with 240 mg/kg dose for 7 days.; format: functional
Mus musculus [42] = test: In vivo antitumor activity against L1210 leukemia in 5 mice measured as median survival range at 200 mg/kg; Value ranges from(13-18); format: functional
Mus musculus [43] = test: Average weight of the mouse after treating with 280 mg/kg dose for 7 days.; format: functional
L1210 [44] = test: In vivo antitumor activity against L1210 leukemia in 15 mice measured as T/C values(days); T/C = 15/9; format: functional, Mus musculus
Mus musculus [45] = test: Average weight of the mouse after treating with 200 mg/kg dose for 7 days.; format: functional
Mus musculus [46] = test: Average weight of the mouse after treating with 120 mg/kg dose for 1 day.; format: functional
L1210 [47] = test: In vivo antitumor activity against L1210 leukemia in 10 mice measured as Increased life span at 120 mg/kg.; format: functional; settings: Mus musculus

`CCCCCCCCCCCCOC(=O)CCC(NC(=O)c1ccc(N(C)Cc2cnc3nc(N)nc(N)c3n2)cc1)C(=O)OCCCCCCCCCCCC` (stereo not drawn) gave an Average weight (Mus musculus [1]) of 23.2, a Range (L1210 [2]) of 21 and an ILS at 60 mg/kg (L1210 [3]) of 100%. It also gave a Range (L1210 [4]) of 14, a Weight change (Mus musculus [5]) of 3 and an ILS at 45 mg/kg (L1210 [6]) of 33%. For the same molecule, the Average weight (Mus musculus [7]) was 24.2 and the Weight change (Mus musculus [8]) was 0.
Work on `CCCCCCCCOC(=O)CCC(NC(=O)c1cc(Cl)c(N(C)Cc2cnc3nc(N)nc(N)c3n2)c(Cl)c1)C(=O)OCCCCCCCC` (stereo not drawn) yielded an Average weight (Mus musculus [9]) of 26.2, an Average weight (Mus musculus [10]) of 28.2 and an Average weight (Mus musculus [11]) of 28.2. The Range (L1210 [12]) was 23, the ILS at 90 mg/kg (L1210 [13]) was 66% and the Weight change (Mus musculus [14]) was 5.8. It also gave a Range (L1210 [15]) of 19, a Range (L1210 [16]) of 13 and an ILS at 45 mg/kg (L1210 [6]) of 44%. The Weight change (Mus musculus [17]) was 1.4 and 3.6 and the ILS at 180 mg/kg (L1210 [18]) was 122%.
Work on `CN(Cc1cnc2nc(N)nc(N)c2n1)c1ccc(C(=O)NC(CCC(=O)OC(C)(C)C)C(=O)OC(C)(C)C)cc1` (stereo not drawn) yielded a Range (L1210 [19]) of 20, a Weight change (Mus musculus [20]) of 2.6 and an ILS (L1210 [21]) of 36. For the same molecule, the T/C (L1210 [22]) was 11 and the Average weight (Mus musculus [23]) was 27.6.
In the case of `CN(Cc1cnc2nc(N)nc(N)c2n1)c1c(Cl)cc(C(=O)NC(CCC(=O)O)C(=O)O)cc1Cl` (stereo not drawn), the ILS at 160 mg/kg (L1210 [24]) is reported as 44%, the Average weight (Mus musculus [25]) is reported as 21.4 and the Range (L1210 [26]) is reported as 16. For the same molecule, the ILS at 240 mg/kg (L1210 [27]) was 67%, the ILS at 280 mg/kg (L1210 [28]) was 89% and the Weight change (Mus musculus [29]) was 2.4. It also gave an Average weight (Mus musculus [30]) of 22.5, a Weight change (Mus musculus [31]) of 2.9 and a T/C (L1210 [32]) of 9. It also gave a Range (L1210 [33]) of 20, a T/C (Mus musculus [34]) of 9 and a T/C (L1210 [35]) of 9. For the same molecule, the ILS at 200 mg/kg (Mus musculus [36]) was 78%, the Range (L1210 [37]) was 18 and the Range (L1210 [38]) was 15. It also gave an Average weight (Mus musculus [39]) of 22.4, an Average weight (Mus musculus [40]) of 24.2 and a Weight change (Mus musculus [41]) of 2.1. For the same molecule, the Range (Mus musculus [42]) was 18, the Weight change (Mus musculus [43]) was 1.4 and the T/C (L1210 [44]) was 9. It also gave a Weight change (Mus musculus [45]) of 1.8, an Average weight (Mus musculus [46]) of 22.4 and an ILS at 120 mg/kg (L1210 [47]) of 22%.
